Experimental data: patent publication US4460503A, “Tuberculine active peptides and a process for preparing same by chemical synthesis” (priority 1983, dated 1984)
Where a SMILES comes first, the peptide text is derived from it. Where no end group is shown, it is not given here.

How the values were obtained:
[1] = test system: Mycobacterium tuberculosis-sensitized guinea pigs; conditions: cited from earlier work
BCG-infected mice = conditions: cited from earlier work
[2] = test system: anti-octapeptide antiserum; assay type: binding, Rabbits
[3] = test system: guinea pigs sensitized with heat-killed M. bovis BCG-Pasteur; assay: Tuberculin skin test in BCG-sensitized guinea pigs; assay type: in vivo; conditions: for skin reaction: 200 μg dose in 100 μl PBS intradermally; for skin reaction / color intensity of skin reaction: after 24 h; for color intensity of skin reaction: 200 μg dose intradermally; for enduration: 200 μg peptide intradermally
Protocol: (§1) The tuberculin tests were carried out on guinea pigs sensitized 6 weeks before with heat-killed Mycobacterium tuberculosis strain Peurois or M. bovis BCG-Pasteur.
(§2) Doses of 200 μg of the octopeptide of formula (I) or of the hexadecapeptide of formula (II) in 100 µl of PBS buffer containing Tween 80, were administered intradermally in the ventral side of guinea pigs sensitized as mentioned above.
(§3) The appearance of a delayed-type tuberculin reaction was observed 24 h and 48 h after the injection.

[4] = peptides obtained after enzymatic digestion of the tuberculin-active protein; cited from earlier work
[5] = test system: guinea pigs sensitized with heat-killed Mycobacterium tuberculosis strain Peurois; assay: Tuberculin skin test in M. tuberculosis strain Peurois-sensitized guinea pigs; conditions: 200 μg dose, after 24 h
Protocol: as §1, §2, §3

Q: Which results are given for NGSQMRL [synthetic heptapeptide]?
A: tuberculin activity in skin tests [1]: devoid of any tuberculin activity; tuberculin activity (BCG-infected mice): devoid of any tuberculin activity

Q: With `N[C@@H](CC(=O)O)C(=O)NCC(=O)NCC(=O)N[C@@H](CO)C(=O)N[C@@H](CCC(=O)O)C(=O)N[C@@H](CO)C(=O)N[C@@H](CCC(=O)O)C(=O)NCC(=O)O` [octapeptide of formula (I), Asp-Gly-Gly-Ser-Glu-Ser-Glu-Gly] (H-DGGSESEG-OH) as the compound, how does the “amount required to displace half of the label in radioimmunoassays” value [2] read?
A: Its value is 250 pg.

Q: And the skin reaction [3]?
A: The skin reaction was 4 mm.

Q: And the “color intensity of skin reaction” value [3]?
A: Its value is “low color intensity”.

Q: What about the enduration [3] of the same compound?
A: The enduration was “little or no enduration”.

Q: With DGGSESEGK [nonapeptide 61-69] as the compound, how does the “tuberculin activity in skin tests” value [4] read?
A: The value was “residual tuberculin activity”.

Q: With NGSQMR [hexapeptide 70-75] as the compound, how does the “tuberculin activity in skin tests” value [4] read?
A: The value was “residual tuberculin activity”.

Q: What does the source list for “DGGSESEGKNGSQMRL [hexadecapeptide of formula (II)]”?
A: amount required to displace half of the label in radioimmunoassays [2]: 500000 pg; level of recognition relative to octapeptide of formula (I) ([2]; taking into account the molecular weight): 0.1%; skin reaction [3]: 8 mm; color intensity of skin reaction [3]: low color intensity; enduration [3]: little or no enduration; enduration (average) [5]: 12 mm; erythematous area, diameter (average) [5]: 11 mm
